Measurements taken from article PMC5394417, “Investigating the molecular mechanism of positive and negative allosteric modulators in the calcium-sensing receptor dimer” (Scientific Reports, 2017).

Assays:
HA-E297A CaSR mutant = target: T1, HA-E297A CaSR mutant (Rattus norvegicus, UniProt P48442, E297A); experiment: IP-One assay, HEK293T transiently transfected; assay type: cell-based
T1 construct: mGluR5 signal peptide (N); expressed in transfected cells; host or cells: HEK293T
T1 sequence (P48442 20-1079 E297A): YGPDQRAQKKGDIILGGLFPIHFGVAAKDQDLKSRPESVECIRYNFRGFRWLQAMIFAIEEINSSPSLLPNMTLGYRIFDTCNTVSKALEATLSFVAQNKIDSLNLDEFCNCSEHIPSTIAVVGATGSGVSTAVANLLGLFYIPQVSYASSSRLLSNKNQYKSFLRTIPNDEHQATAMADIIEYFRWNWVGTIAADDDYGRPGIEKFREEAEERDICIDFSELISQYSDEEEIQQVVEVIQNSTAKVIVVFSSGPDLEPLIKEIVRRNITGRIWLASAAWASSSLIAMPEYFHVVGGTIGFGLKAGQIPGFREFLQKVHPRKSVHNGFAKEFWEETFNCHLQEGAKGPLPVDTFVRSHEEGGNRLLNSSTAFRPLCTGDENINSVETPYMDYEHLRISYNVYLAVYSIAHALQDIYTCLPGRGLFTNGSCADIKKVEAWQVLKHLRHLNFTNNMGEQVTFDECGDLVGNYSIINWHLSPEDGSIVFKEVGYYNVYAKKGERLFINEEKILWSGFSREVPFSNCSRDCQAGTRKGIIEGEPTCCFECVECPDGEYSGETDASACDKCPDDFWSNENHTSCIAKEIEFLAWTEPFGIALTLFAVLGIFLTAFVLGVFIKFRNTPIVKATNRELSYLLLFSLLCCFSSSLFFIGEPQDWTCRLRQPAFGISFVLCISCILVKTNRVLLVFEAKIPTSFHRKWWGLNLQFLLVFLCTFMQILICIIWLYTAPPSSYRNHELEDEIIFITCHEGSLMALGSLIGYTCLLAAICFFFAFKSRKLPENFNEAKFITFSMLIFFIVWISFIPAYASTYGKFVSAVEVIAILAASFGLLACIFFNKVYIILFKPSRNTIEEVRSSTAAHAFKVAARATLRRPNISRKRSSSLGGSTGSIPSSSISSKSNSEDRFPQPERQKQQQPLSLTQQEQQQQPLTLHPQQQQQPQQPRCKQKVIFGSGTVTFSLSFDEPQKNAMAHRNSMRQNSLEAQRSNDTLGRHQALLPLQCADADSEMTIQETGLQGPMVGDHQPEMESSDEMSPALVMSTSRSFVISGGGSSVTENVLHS

[1] = target: T2, HA-F801A CaSR mutant (ICL3 mutant) (Rattus norvegicus, UniProt P48442, F801A); experiment: IP-One assay, HEK293T transiently transfected; assay type: cell-based
T2 construct: mGluR5 signal peptide (N); expressed in transfected cells; host or cells: HEK293T
T2 sequence (P48442 20-1079 F801A): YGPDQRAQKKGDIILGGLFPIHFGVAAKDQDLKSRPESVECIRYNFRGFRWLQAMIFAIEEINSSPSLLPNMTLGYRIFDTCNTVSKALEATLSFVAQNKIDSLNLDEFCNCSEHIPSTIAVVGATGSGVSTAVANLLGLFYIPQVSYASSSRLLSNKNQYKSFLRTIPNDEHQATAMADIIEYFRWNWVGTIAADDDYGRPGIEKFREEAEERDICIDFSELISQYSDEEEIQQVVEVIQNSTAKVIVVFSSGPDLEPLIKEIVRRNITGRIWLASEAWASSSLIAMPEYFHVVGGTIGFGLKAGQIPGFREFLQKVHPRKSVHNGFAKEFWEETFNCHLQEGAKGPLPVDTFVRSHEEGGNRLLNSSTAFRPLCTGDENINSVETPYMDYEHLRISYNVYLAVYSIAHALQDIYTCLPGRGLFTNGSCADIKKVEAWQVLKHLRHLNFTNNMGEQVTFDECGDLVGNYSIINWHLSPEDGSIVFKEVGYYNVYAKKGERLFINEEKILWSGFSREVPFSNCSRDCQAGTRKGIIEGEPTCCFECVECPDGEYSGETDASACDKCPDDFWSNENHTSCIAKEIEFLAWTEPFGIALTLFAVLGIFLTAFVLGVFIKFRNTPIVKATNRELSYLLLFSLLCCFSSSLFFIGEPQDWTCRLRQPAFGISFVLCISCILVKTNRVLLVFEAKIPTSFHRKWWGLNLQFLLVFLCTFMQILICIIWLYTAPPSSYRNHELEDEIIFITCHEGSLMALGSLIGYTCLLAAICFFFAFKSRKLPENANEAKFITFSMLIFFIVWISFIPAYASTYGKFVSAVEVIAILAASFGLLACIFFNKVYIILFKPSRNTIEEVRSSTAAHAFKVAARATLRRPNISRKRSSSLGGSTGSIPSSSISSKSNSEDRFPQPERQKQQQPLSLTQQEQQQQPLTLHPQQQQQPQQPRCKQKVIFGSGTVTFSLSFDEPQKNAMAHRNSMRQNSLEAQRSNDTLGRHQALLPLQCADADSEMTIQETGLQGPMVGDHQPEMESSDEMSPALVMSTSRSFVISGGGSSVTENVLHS

[2] = normalized to maximum response of WT CaSR

EC50 (HA-E297A CaSR mutant; Ca^2+ alone): 7.36 mM
Hill coefficient ± S.E.M. (HA-E297A CaSR mutant; Ca^2+ alone): 3.01 ± 0.07
Max ± S.E.M. (HA-E297A CaSR mutant; [2]): 130 ± 25%
EC50 ([1]; Ca^2+ alone): > 30 mM
Max ± S.E.M. [1, 2]: 5.8 ± 0.4%
Structure (SMILES): [Ca+2] [Ca^2+]
